Tests used:
[1] = biological target: Cyclin-dependent kinase 2/G1/S-specific cyclin-E1 (Homo sapiens, UniProt P24941); assay: CDK2/Cyclin E1 Full Length ADP-Glo Kinase Assay
Procedure: ADP-Glo is performed in 2 steps upon completion of kinase reaction: a combined termination of kinase reaction and depletion of remaining ATP in the first step, and conversion of generated ADP to ATP and the newly produced ATP to light output using luciferase/luciferin reaction in the second step. The luminescent signal generated is proportional to the ADP concentration produced and is correlated with the kinase activity. CDK2/Cyclin E1 was purchased from Eurofins (Cat 14-475M). Typical reaction solutions (10 uL final reaction volume) contained 2% DMSO (f inhibitor), 10 mM MgCI2, 1 mM EGTA, 0.05% BSA, 2 mM DTT, 20 uM ATP (ATP Km=64.78 uM), 0.01% Brig-35, 0.75 uM substrate, and 0.328 nM wild-type full length CDK2/Cyclin E1 enzyme complex in 50 mM HEPES buffer at pH 7.5. The assay was initiated with the addition of ATP-containing substrate solution, following a 30-minute pre-incubation of enzyme and inhibitor at room temperature in the reaction mixture. The reaction was stopped after 90 minutes at room temperature by the addition of 10 uL of ADP-GLO Reagent. After a 90 minute incubation, 20 uL of Kinase Detection Reagent was added. Samples were incubated for 40 minutes, after which plate well luminescence was measured on a Envision microplate reader.

[2] = biological target: Cyclin-dependent kinase 4/G1/S-specific cyclin-D1 (Homo sapiens, UniProt P11802); assay: CDK4/Cyclin D1 Mobility Shift Assay (MSA)
Cyclin-dependent kinase 4/G1/S-specific cyclin-D1, sequence (P11802 whole entry): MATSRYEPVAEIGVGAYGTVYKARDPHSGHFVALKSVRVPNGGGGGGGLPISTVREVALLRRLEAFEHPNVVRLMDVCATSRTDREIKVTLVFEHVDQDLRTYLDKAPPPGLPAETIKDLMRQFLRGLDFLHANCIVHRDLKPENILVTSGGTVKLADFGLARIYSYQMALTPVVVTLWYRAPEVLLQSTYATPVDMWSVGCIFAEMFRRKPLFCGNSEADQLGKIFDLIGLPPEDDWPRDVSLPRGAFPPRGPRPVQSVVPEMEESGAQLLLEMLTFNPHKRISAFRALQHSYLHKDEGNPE
Cyclin-dependent kinase 4/G1/S-specific cyclin-D1, sequence (P24385 whole entry, further chain): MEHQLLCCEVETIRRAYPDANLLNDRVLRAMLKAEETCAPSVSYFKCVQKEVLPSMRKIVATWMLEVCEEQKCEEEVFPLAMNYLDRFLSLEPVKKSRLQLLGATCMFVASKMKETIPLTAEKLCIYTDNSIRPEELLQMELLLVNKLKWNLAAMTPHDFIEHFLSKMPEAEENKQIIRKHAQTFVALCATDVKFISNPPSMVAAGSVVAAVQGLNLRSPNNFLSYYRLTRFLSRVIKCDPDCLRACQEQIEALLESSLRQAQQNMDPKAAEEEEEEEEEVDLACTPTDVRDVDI
Procedure: CDK4/Cyclin D1 catalyzes the production of ADP from ATP that accompanies the phosphoryl transfer to the substrate peptide 5-FAM-Dyrktide (5-FAM-RRRFRPASPLRGPPK) (Perkin Elmer Peptide 34). The mobility shift assay (MSA) electrophoretically separates the fluorescently labelled peptides (substrate and phosphorylated product) following the kinase reaction. Both substrate and product are measured, and the ratio of these values is used to generate % conversion of substrate to product by the LabChip EZ Reader. Typical reaction solutions contained 2% DMSO (+/−inhibitor), 10 mM MgCl2, 1 mM EGTA, 0.05% BSA, 2 mM DTT, 0.2 mM ATP, 0.01% Brig-35, 1.5 uM 5-FAM-Dyrktide, 2.5 nM CDK4/Cyclin D1 in 50 mM HEPES buffer at pH 7.5. The reaction was initiated with the addition of substrate solution, following a 30-minute pre-incubation of enzyme and inhibitor at 22° C. in the reaction mix. The reaction was stopped after 180 minutes by the addition of 75 uL of 500 mM EDTA and measured on a Perkin Elmer EZ reader instrument.

[3] = biological target: Cyclin-dependent kinase/G2/mitotic-specific cyclin- 1 (Homo sapiens, UniProt P06493); assay: CDK1/Cyclin B1 ADP-Glo Kinase Assay
Cyclin-dependent kinase/G2/mitotic-specific cyclin- 1, sequence (P06493 whole entry): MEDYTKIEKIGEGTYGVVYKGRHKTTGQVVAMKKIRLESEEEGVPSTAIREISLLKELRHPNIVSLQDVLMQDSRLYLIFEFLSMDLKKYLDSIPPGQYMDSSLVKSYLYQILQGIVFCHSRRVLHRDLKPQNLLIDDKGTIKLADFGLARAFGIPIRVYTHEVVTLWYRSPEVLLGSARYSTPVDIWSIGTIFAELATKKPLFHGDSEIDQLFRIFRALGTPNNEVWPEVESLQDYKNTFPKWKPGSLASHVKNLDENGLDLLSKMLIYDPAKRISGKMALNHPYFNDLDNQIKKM
Cyclin-dependent kinase/G2/mitotic-specific cyclin- 1, sequence (P14635 whole entry, further chain): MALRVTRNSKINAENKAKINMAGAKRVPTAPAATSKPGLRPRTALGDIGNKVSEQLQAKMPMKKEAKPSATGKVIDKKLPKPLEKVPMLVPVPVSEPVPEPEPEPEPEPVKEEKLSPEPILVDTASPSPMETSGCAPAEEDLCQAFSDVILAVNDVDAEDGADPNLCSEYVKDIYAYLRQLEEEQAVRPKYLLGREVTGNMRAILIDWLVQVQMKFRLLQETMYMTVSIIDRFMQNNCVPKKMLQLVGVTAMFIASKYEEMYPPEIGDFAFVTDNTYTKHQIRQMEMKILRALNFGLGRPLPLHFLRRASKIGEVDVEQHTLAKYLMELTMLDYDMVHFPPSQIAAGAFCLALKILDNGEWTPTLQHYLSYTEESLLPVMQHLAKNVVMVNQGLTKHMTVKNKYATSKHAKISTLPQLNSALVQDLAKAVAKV
Procedure: The luminescent signal generated is proportional to the ADP concentration produced and is correlated with the kinase activity. CDK1/Cyclin B1 was purchased from Carna (Cat 04-102). Typical reaction solutions (10 uL final reaction volume) contained 2% DMSO (f inhibitor), 10 mM MgCl2, 1 mM EGTA, 0.05% BSA, 2 mM DTT, 80 uM ATP (ATP Km=78.6 uM), 0.01% Brig-35, 0.75 uM substrate, and 4.917 nM CDK1/Cyclin Bl enzyme complex in 50 mM HEPES buffer at pH 7.5. The assay was initiated with the addition of ATP-containing substrate solution, following a 30-minute pre-incubation of enzyme and inhibitor at room temperature in the reaction mixture. The reaction was stopped after 90 minutes at room temperature by the addition of 10 uL of ADP-GLO Reagent. After a 90 minute incubation, 20 uL of Kinase Detection Reagent was added. Samples were incubated for 40 minutes, after which plate well luminescence was measured on a Envision microplate reader.

IC50 [1]: < 200 nM | IC50 [2]: 200 to 500 nM | IC50 [3]: > 2000 nM
Compound: CS(=O)(=O)N1CCC(Nc2ncc3cccc(N4CCC(N5CCC5)C4)c3n2)CC1 (stereo not drawn) [US20240092761, Compound 32]
